From US20240043407A1, “CRYSTALLINE FORM I OF MELANOCORTIN RECEPTOR AGONIST COMPOUND AND METHOD FOR PREPARING SAME” (LG CHEM, LTD., priority 2020, published 2024)

Assays:
Type in all cases: physicochemical
[1] = Dynamic vapor sorption (DVS) analysis
Protocol: DVS was measured using automated gravimetric vapor sorption analyzer equipped with Cahn D200 ultra-microbalance (DVS Intrinsic apparatus, Surface Measurement System Ltd., UK). First, a sample of 10-20 mg was put in a sample pan and hung on a hang-down wire, and measurement was started when the weight and humidity reached equilibrium. In one cycle, relative humidity was increased from 0% to 90% and then dropped back to 0%. Two cycles were carried out. The experiment was carried out in a way that the relative humidity was increased at 10% increment using a dm/dt method. The experiment was carried out at room temperature (25° C.)

[2] = Stability assessment by HPLC after storage; settings: for HPLC content, Accelerated condition (40° C./75% RH): open state; for HPLC content, Accelerated condition (40° C./75% RH) / HPLC content, Harsh condition (80° C.): in % (unit assumed); for HPLC content, Harsh condition (80° C.): sealed state, oven 80° C.
Protocol: About 10-30 mg of the sample was stored for 4 weeks in an open state under the accelerated condition (40° C., 75% RH) or in a sealed state under the harsh condition in an oven at 80° C. [table]

[3] = Thermogravimetric analysis (TGA)
Protocol: The TGA was measured using Mettler Toledo TGA/DSC 1 module. About 4-8 mg of the sample is weighed and put into a 100 μL Al crucible (flat-bottomed aluminum crucibles). Then, TGA measurement is performed while the sample is heated from 30° C. to 350° C. at a rate of 10° C./min. During the measurement, nitrogen gas is supplied to the inside of the instrument at a rate of 80 mL/min to prevent the inflow of oxygen and other gases. Data collection and evaluation were performed using the software STARe.

total weight gain observed between 0-90% RH ([1]; DVS, 25° C., 0-90% RH, two cycles): 0.2 % w/w
physical change after DVS (XRPD pattern compared with initial compound) ([1]; XRPD after DVS analysis): no physical change occurred
chemical stability ([2]; accelerated (40° C., 75% RH) and harsh (80° C.) condition, 4 weeks): showed chemical stability for 4 weeks
decrease in the content until week 4 ([2]; accelerated condition (40° C., 75% RH) and closed state (harsh condition, 80° C.), until week 4): about 1.3%
decrease in the content under the accelerated condition ([2]; accelerated condition, for 4 weeks): less than 1%
HPLC content, Initial ([2]; initial, before storage): 97.8%
HPLC content, Accelerated condition (40° C./75% RH) ([2]; Day 3): 97.51
HPLC content, Accelerated condition (40° C./75% RH) ([2]; Week 1): 96.64
HPLC content, Accelerated condition (40° C./75% RH) ([2]; Week 2): 97.73
HPLC content, Accelerated condition (40° C./75% RH) ([2]; Week 4): 97.47
HPLC content, Harsh condition (80° C.) ([2]; Day 3): 97.46
HPLC content, Harsh condition (80° C.) ([2]; Week 1): 97.34
HPLC content, Harsh condition (80° C.) ([2]; Week 2): 96.94
HPLC content, Harsh condition (80° C.) ([2]; Week 4): 96.47
temperature up to which thermally stable ([3]; TGA, error of ±5° C.): up to 270 °C
Compound: CC(C)C(=O)N([C@H]1C[C@@H](C(=O)N2CCOCC2)N(C(=O)[C@@H]2CN(C(C)(C)C)C[C@H]2c2ccc(Cl)cc2)C1)[C@H]1CC[C@@H](C)CC1 [Example 1, N-((3S,5S)-1-((3S,4R)-1-(tert-butyl)-4-(4-chlorophenyl)pyrrolidine-3-carbonyl)-5-(morpholine-4-carbonyl)pyrrolidin-3-yl)-N-((1s,4R)-4-methylcyclohexyl)isobutyramide]
weight loss in TGA before degradation ([3]; heated from 30° C. to 350° C. at 10° C./min): no weight loss was observed before degradation
